{"source": "patent US12528838B2", "about": "“Cyclic dominant negative competence stimulating peptide analogs and methods of treating Streptococcus pneumoniae infections” (priority 2019, dated 2026)", "key": {"ComD1 receptor": {"molecular_target": "ComD1 receptor (Streptococcus pneumoniae serotype 2, UniProt A0A0H2ZM50)", "sequence (A0A0H2ZM50 entry or part of it)": "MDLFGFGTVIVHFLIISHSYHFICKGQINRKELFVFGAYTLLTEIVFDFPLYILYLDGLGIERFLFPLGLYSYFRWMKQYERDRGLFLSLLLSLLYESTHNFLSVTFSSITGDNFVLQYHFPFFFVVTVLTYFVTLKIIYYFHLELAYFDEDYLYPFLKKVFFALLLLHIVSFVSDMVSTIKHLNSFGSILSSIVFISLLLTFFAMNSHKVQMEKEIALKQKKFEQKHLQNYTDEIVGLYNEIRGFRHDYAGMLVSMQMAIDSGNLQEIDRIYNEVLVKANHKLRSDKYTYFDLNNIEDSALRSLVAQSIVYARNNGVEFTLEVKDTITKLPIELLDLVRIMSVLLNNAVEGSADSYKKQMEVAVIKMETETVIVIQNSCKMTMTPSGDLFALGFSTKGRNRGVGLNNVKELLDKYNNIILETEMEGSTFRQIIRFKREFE", "assay": "cell-based", "assay_type": "cell-based", "settings": "for maximal induction of comX compared to CSP1 / potency higher than CSP1-cyc(Orn6D10): ComD1", "description": "(§1) Biological evaluation of cyclic dnCSPs. The cyclic dnCSPs will be assessed for inhibition of competence induction using the β-gal, lux (FIG. 11) or luc (FIG. 15) reporter systems we have optimized for the analysis of a large number of signal variants in 96-well plates. All assays will be performed in triplicates and independently three times. Serial dilutions of dnCSPs will be conducted to determine the EC50 and IC50 values of promising dnCSPs through initial screening. Data from reporter assays will be analyzed using the GraphPad Prism software. The lead dnCSPs will be assessed for their therapeutic potential using multiple in vitro assays, including attenuation of ComX-induction (reporter systems), genetic transformation, allolysis (zymogram assays), and release of PLY (hemolysis & Western blots). Lastly, the pneumococcal competence system regulates biofilm formation, which is important for the pathogenesis of […]. The ability of the dnCSPs to inhibit biofilm formation will be evaluated after 24 hr of growth on 1% BSA coated coverslips placed in flat-bottom polystyrene tissue culture plates by staining with FilmTracer LIVE/DEAD Biofilm viability kit (Invitrogen, L10316), and visualized using a confocal microscope and Z-stacked to construct 3D-images."}, "ComD2 receptor": {"molecular_target": "ComD2 receptor (Streptococcus pneumoniae serotype 4, UniProt A0A0H2US84)", "sequence (A0A0H2US84 entry or part of it)": "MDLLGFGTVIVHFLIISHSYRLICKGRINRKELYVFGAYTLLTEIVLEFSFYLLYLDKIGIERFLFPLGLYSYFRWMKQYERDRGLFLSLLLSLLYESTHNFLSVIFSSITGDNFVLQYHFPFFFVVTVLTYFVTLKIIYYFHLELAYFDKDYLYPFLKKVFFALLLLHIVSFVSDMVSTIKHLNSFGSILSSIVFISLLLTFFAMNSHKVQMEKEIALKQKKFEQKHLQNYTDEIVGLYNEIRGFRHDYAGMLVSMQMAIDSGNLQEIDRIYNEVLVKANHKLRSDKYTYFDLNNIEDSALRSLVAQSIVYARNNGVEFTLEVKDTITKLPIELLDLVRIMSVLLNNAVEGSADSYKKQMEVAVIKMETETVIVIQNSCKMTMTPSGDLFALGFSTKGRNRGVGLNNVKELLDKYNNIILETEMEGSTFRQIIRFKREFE", "assay": "cell-based", "assay_type": "cell-based", "description": "as §1, with “The cyclic dnCSPs will be assessed for inhibition of competence induction using the β-gal, lux (FIG. 11) or luc (FIG. 15) reporter systems we have optimized for the analysis of a large number of signal variants in 96-well plates.” left out"}}, "note": "Where two headings read alike, the source gives them in different places. Bridge positions count the residues as written; N and C are the ends. Square brackets hold non-standard residues; d marks the D form. Peptide text beside a SMILES is read from it. Dab = NCC[C@H](N)C(=O)O; Dap = NC[C@H](N)C(=O)O", "data": [{"compound": "CC[C@H](C)[C@H](NC(=O)[C@H](Cc1ccccc1)NC(=O)[C@@H]1CCC(=O)NCC[C@H](NC(=O)[C@H](CO)NC(=O)[C@H](CC(C)C)NC(=O)[C@H](CCCNC(=N)N)NC(=O)[C@H](CCSC)NC(=O)[C@H](C)N)C(=O)N[C@@H](Cc2ccccc2)C(=O)N[C@@H](Cc2ccccc2)C(=O)N[C@@H](CCCNC(=N)N)C(=O)N1)C(=O)N[C@@H](CC(C)C)C(=O)N[C@@H](CCC(N)=O)C(=O)N[C@@H](CCCNC(=N)N)C(=O)N[C@@H](CCCCN)C(=O)N[C@@H](CCCCN)C(=O)O", "note": "[CSP1-E1A-cyc(Dab6E10), A-M-R-L-S-(Dab-F-F-R-E)-F-I-L-Q-R-K-K] (H-AMRLS[Dab]FFREFILQRKK-OH; lactam 6-10; N-terminus and C-terminus assumed)", "values": [{"measurement": "IC50", "setting": "ComD1 receptor", "result": 173, "unit": "nM"}, {"measurement": "IC50", "setting": "ComD2 receptor", "result": "> 1000", "unit": "nM"}, {"measurement": "IC50", "setting": "ComD2 receptor; read-out: ComD2 IC50 (95% CI), Table 2, β-gal reporter, IC50 values in italic font", "result": "> 1000", "unit": "nM"}]}, {"compound": "CC[C@H](C)[C@H](NC(=O)[C@H](Cc1ccccc1)NC(=O)[C@@H]1CCC(=O)NC[C@H](NC(=O)[C@H](CO)NC(=O)[C@H](CC(C)C)NC(=O)[C@H](CCCNC(=N)N)NC(=O)[C@H](CCSC)NC(=O)[C@H](C)N)C(=O)N[C@@H](Cc2ccccc2)C(=O)N[C@@H](Cc2ccccc2)C(=O)N[C@@H](CCCNC(=N)N)C(=O)N1)C(=O)N[C@@H](CC(C)C)C(=O)N[C@@H](CCC(N)=O)C(=O)N[C@@H](CCCNC(=N)N)C(=O)O", "note": "[CSP1-E1A-des-K16K17-cyc(Dap6E10), A-M-R-L-S-(Dap-F-F-R-E)-F-I-L-Q-R] (H-AMRLS[Dap]FFREFILQR-OH; lactam 6-10; N-terminus and C-terminus assumed)", "values": [{"measurement": "IC50", "setting": "ComD1 receptor", "result": 7.57, "unit": "nM"}, {"measurement": "higher inhibition potency against the ComD1 receptor compared to parent CSP1-E1A-cyc(Dap6E10)", "setting": "ComD1 receptor", "result": "~10", "unit": "fold"}, {"measurement": "IC50", "setting": "ComD2 receptor", "result": 67.2, "unit": "nM"}, {"measurement": "higher inhibition potency against the ComD2 receptor compared to parent CSP1-E1A-cyc(Dap6E10)", "setting": "ComD2 receptor", "result": 3, "unit": "fold"}]}, {"compound": "CC[C@H](C)[C@H](NC(=O)[C@H](Cc1ccccc1)NC(=O)[C@@H]1CCC(=O)NCC[C@H](NC(=O)[C@H](CO)NC(=O)[C@H](CC(C)C)NC(=O)[C@H](CCCNC(=N)N)NC(=O)[C@H](CCSC)NC(=O)[C@@H](N)CCC(=O)O)C(=O)N[C@@H](Cc2ccccc2)C(=O)N[C@@H](Cc2ccccc2)C(=O)N[C@@H](CCCNC(=N)N)C(=O)N1)C(=O)N[C@@H](CC(C)C)C(=O)N[C@@H](CCC(N)=O)C(=O)N[C@@H](CCCNC(=N)N)C(=O)N[C@@H](CCCCN)C(=O)N[C@@H](CCCCN)C(=O)O", "note": "[CSP1-cyc(Dab6E10)] (H-EMRLS[Dab]FFREFILQRKK-OH; lactam 6-10; N-terminus and C-terminus assumed)", "values": [{"measurement": "EC50", "setting": "ComD1 receptor", "result": 12.2, "unit": "nM"}, {"measurement": "maximal induction of comX compared to CSP1", "setting": "ComD1 receptor", "result": 100, "unit": "%"}, {"measurement": "potency higher than CSP1-cyc(Orn6D10)", "setting": "ComD1 receptor", "result": 10, "unit": "fold"}, {"measurement": "EC50", "setting": "ComD2 receptor", "result": 31.4, "unit": "nM"}]}, {"compound": "CC[C@H](C)[C@H](NC(=O)[C@H](Cc1ccccc1)NC(=O)[C@@H]1CCC(=O)NC[C@H](NC(=O)[C@H](CO)NC(=O)[C@H](CC(C)C)NC(=O)[C@H](CCCNC(=N)N)NC(=O)[C@H](CCSC)NC(=O)[C@@H](N)CCC(=O)O)C(=O)N[C@@H](Cc2ccccc2)C(=O)N[C@@H](Cc2ccccc2)C(=O)N[C@@H](CCCNC(=N)N)C(=O)N1)C(=O)N[C@@H](CC(C)C)C(=O)N[C@@H](CCC(N)=O)C(=O)N[C@@H](CCCNC(=N)N)C(=O)N[C@@H](CCCCN)C(=O)N[C@@H](CCCCN)C(=O)O", "note": "[CSP1-cyc(Dap6E10)] (H-EMRLS[Dap]FFREFILQRKK-OH; lactam 6-10; N-terminus and C-terminus assumed)", "values": [{"measurement": "EC50", "setting": "ComD1 receptor", "result": 14.6, "unit": "nM"}, {"measurement": "maximal induction of comX compared to CSP1", "setting": "ComD1 receptor", "result": 100, "unit": "%"}, {"measurement": "potency higher than CSP1-cyc(Orn6D10)", "setting": "ComD1 receptor", "result": 10, "unit": "fold"}, {"measurement": "EC50", "setting": "ComD2 receptor", "result": 13.1, "unit": "nM"}, {"measurement": "potency against ComD2 receptor higher than CSP2", "setting": "ComD2 receptor", "result": "about 4 fold"}]}, {"compound": "CC[C@H](C)[C@H](NC(=O)[C@H](Cc1ccccc1)NC(=O)[C@H](CC(=O)O)NC(=O)[C@@H]1CC(=O)NCCCC[C@H](NC(=O)[C@H](CO)NC(=O)[C@H](CC(C)C)NC(=O)[C@H](CCCNC(=N)N)NC(=O)[C@H](CCSC)NC(=O)[C@@H](N)CCC(=O)O)C(=O)N[C@@H](Cc2ccccc2)C(=O)N[C@@H](Cc2ccccc2)C(=O)N1)C(=O)N[C@@H](CC(C)C)C(=O)N[C@@H](CCC(N)=O)C(=O)N[C@@H](CCCNC(=N)N)C(=O)N[C@@H](CCCCN)C(=O)N[C@@H](CCCCN)C(=O)O", "note": "[CSP1-cyc(K6D9)] (H-EMRLSKFFDDFILQRKK-OH; lactam 6-9; N-terminus and C-terminus assumed)", "values": [{"measurement": "EC50", "setting": "ComD1 receptor", "result": "> 1000", "unit": "nM"}, {"measurement": "EC50", "setting": "ComD2 receptor", "result": 528, "unit": "nM"}]}, {"compound": "CC[C@H](C)[C@H](NC(=O)[C@H](Cc1ccccc1)NC(=O)[C@@H]1CC(=O)NCCCC[C@H](NC(=O)[C@H](CO)NC(=O)[C@H](CC(C)C)NC(=O)[C@H](CCCNC(=N)N)NC(=O)[C@H](CCSC)NC(=O)[C@@H](N)CCC(=O)O)C(=O)N[C@@H](Cc2ccccc2)C(=O)N[C@@H](Cc2ccccc2)C(=O)N[C@@H](CCCNC(=N)N)C(=O)N1)C(=O)N[C@@H](CC(C)C)C(=O)N[C@@H](CCC(N)=O)C(=O)N[C@@H](CCCNC(=N)N)C(=O)N[C@@H](CCCCN)C(=O)N[C@@H](CCCCN)C(=O)O", "note": "[CSP1-cyc(K6D10)]", "values": [{"measurement": "EC50", "setting": "ComD1 receptor", "result": 258, "unit": "nM"}, {"measurement": "maximal induction of comX compared to CSP1", "setting": "ComD1 receptor", "result": 44, "unit": "%"}, {"measurement": "EC50", "setting": "ComD2 receptor", "result": "> 1000", "unit": "nM"}]}, {"compound": "CC[C@H](C)[C@@H]1NC(=O)[C@H](Cc2ccccc2)NC(=O)[C@H](CC(=O)O)NC(=O)[C@H](CCCNC(=N)N)NC(=O)[C@H](Cc2ccccc2)NC(=O)[C@H](Cc2ccccc2)NC(=O)[C@@H](NC(=O)[C@H](CO)NC(=O)[C@H](CC(C)C)NC(=O)[C@H](CCCNC(=N)N)NC(=O)[C@H](CCSC)NC(=O)[C@@H](N)CCC(=O)O)CCCCNC(=O)C[C@@H](C(=O)N[C@@H](CCCNC(=N)N)C(=O)N[C@@H](CCCCN)C(=O)N[C@@H](CCCCN)C(=O)O)NC(=O)[C@H](CC(C)C)NC1=O", "note": "[CSP1-cyc(K6D14)] (H-EMRLSKFFRDFILDRKK-OH; lactam 6-14; N-terminus and C-terminus assumed)", "values": [{"measurement": "EC50", "setting": "ComD1 receptor", "result": "> 1000", "unit": "nM"}, {"measurement": "EC50", "setting": "ComD2 receptor", "result": "> 1000", "unit": "nM"}]}, {"compound": "CC[C@H](C)[C@H](NC(=O)[C@H](Cc1ccccc1)NC(=O)[C@@H]1CCC(=O)NCCCC[C@H](NC(=O)[C@H](CO)NC(=O)[C@H](CC(C)C)NC(=O)[C@H](CCCNC(=N)N)NC(=O)[C@H](CCSC)NC(=O)[C@@H](N)CCC(=O)O)C(=O)N[C@@H](Cc2ccccc2)C(=O)N[C@@H](Cc2ccccc2)C(=O)N[C@@H](CCCNC(=N)N)C(=O)N1)C(=O)N[C@@H](CC(C)C)C(=O)N[C@@H](CCC(N)=O)C(=O)N[C@@H](CCCNC(=N)N)C(=O)N[C@@H](CCCCN)C(=O)N[C@@H](CCCCN)C(=O)O", "note": "[CSP1-cyc(K6E10)]", "values": [{"measurement": "EC50", "setting": "ComD1 receptor", "result": 350, "unit": "nM"}, {"measurement": "EC50", "setting": "ComD2 receptor", "result": "> 1000", "unit": "nM"}]}, {"compound": "CC[C@H](C)[C@@H]1NC(=O)[C@H](Cc2ccccc2)NC(=O)[C@@H](NC(=O)[C@H](CCCNC(=N)N)NC(=O)[C@H](Cc2ccccc2)NC(=O)[C@H](Cc2ccccc2)NC(=O)[C@H](CCCCN)NC(=O)[C@H](CO)NC(=O)[C@H](CC(C)C)NC(=O)[C@H](CCCNC(=N)N)NC(=O)[C@H](CCSC)NC(=O)[C@@H](N)CCC(=O)O)CCCCNC(=O)C[C@@H](C(=O)N[C@@H](CCCNC(=N)N)C(=O)N[C@@H](CCCCN)C(=O)N[C@@H](CCCCN)C(=O)O)NC(=O)[C@H](CC(C)C)NC1=O", "note": "[CSP1-cyc(K10D14)] (H-EMRLSKFFRKFILDRKK-OH; lactam 10-14; N-terminus and C-terminus assumed)", "values": [{"measurement": "EC50", "setting": "ComD1 receptor", "result": 257, "unit": "nM"}]}, {"compound": "CC[C@H](C)[C@H](NC(=O)[C@H](Cc1ccccc1)NC(=O)[C@@H]1CC(=O)NCCC[C@H](NC(=O)[C@H](CO)NC(=O)[C@H](CC(C)C)NC(=O)[C@H](CCCNC(=N)N)NC(=O)[C@H](CCSC)NC(=O)[C@@H](N)CCC(=O)O)C(=O)N[C@@H](Cc2ccccc2)C(=O)N[C@@H](Cc2ccccc2)C(=O)N[C@@H](CCCNC(=N)N)C(=O)N1)C(=O)N[C@@H](CC(C)C)C(=O)N[C@@H](CCC(N)=O)C(=O)N[C@@H](CCCNC(=N)N)C(=O)N[C@@H](CCCCN)C(=O)N[C@@H](CCCCN)C(=O)O", "note": "[CSP1-cyc(Orn6D10)]", "values": [{"measurement": "EC50", "setting": "ComD1 receptor", "result": 193, "unit": "nM"}, {"measurement": "maximal induction of comX compared to CSP1", "setting": "ComD1 receptor", "result": 100, "unit": "%"}, {"measurement": "EC50", "setting": "ComD2 receptor", "result": "> 1000", "unit": "nM"}]}, {"compound": "CSP1-E1AK6A (AMRLSAFFRDFILQRKK)", "values": [{"measurement": "inhibition of ComD receptors", "setting": "ComD1 receptor", "result": "could only strongly inhibit the ComD1 receptor"}]}]}
